The values below come from US9289411B2, “Anti-HCV agent” (NATIONAL UNIVERSITY CORPORATION OKAYAMA UNIVERSITY, priority 2011, dated 2016).

Data set [1] deals with HCV RNA in OL8 cells (HCV-O strain-derived full-length HCV-genome-replicating cells). The data set is described as follows: Production of cured cells from OL8 cells subcultured for 3 years. Format: cell-based. As to conditions: treated similarly with N-89. The procedure: (§1) 4×10^5 ORL8 cells were plated onto a 10-cm plate (10 mL of medium in the absence of G418) (Day 1), and N-89 was added so as to achieve a final concentration of 1 μM the next day (Day 2). After 3 days (Day 5), the cells were diluted 10-fold, and N-89 was added again the next day. This operation was repeated an additional four times (N-89 was added six times in total: Days 2, 6, 10, 14, 18, and 22). At the time of the dilution of the cells (Day 13), which was performed 3 days after the third addition of N-89, the cells were divided into two plates with medium in the presence of G418 (neomycin) (0.3 mg/mL) and medium in the absence of G418. Then, N-89 was added three times, a plurality of plates were prepared at the time of the final dilution of the cells, and finally, one of the plates for each of the media was subjected to CBB staining (Day 26).
(§2) Further, cells obtained by subculturing HCV-O strain-derived full-length HCV-genome-replicating cells (OL8 cells and OL11 cells) (Kato et al., Virus Res. 146:41-50, 2009) for 3 years (the cells had acquired the status of genetic diversity (called quasispecies) owing to various mutations in an HCV genome caused by the sustained replication of the HCV genome) were used and similarly treated with N-89.

In data set [2] the test system is HCV-RNA replication in ORL8 cells. In words: Influence of oxidizing agents KNO3 and NaClO4 on anti-HCV activity in ORL8 cells. Format: cell-based, HCV genotype 1b. Conditions: N-89 0.5 μM + KNO3 or NaClO4 10 μM, 72 hours. The procedure:
The effects of addition of KNO3 and NaClO4 on the anti-HCV activity of N-89 were examined using ORL8 cells.
N-89 and KNO3 or NaClO4 were simultaneously added so that the concentrations of N-89 and KNO3 or NaClO4 were set to 0.5 μM and 10 μM, respectively. The luciferase activity was measured 72 hours after the culture.

Data set [3] deals with HCV RNA in OL11 cells (HCV-O strain-derived full-length HCV-genome-replicating cells). The data set is described as follows: Production of cured cells from OL11 cells subcultured for 3 years. The data set is classed as cell-based. As to conditions: treated similarly with N-89. The procedure: as §1, §2
Data set [4] is described as follows: Cytotoxic effect, WST-1 cell proliferation assay in AH1R cells. Format: cell-based. As to conditions: human. In general terms: Tetrazolium assays rely on reduction of a dye to a coloured formazan, in cell work by metabolically active cells.
Excerpt: (§3) Assay systems using OR6 cells (HCV-O strain), 1B-4R cells (HCV-1B-4 strain), and AH1R cells (HCV-AH1R strain) as HuH-7 cell-derived full-length HCV-RNA-replicating cells, and ORL8 cells (HCV-O strain), ORL11 cells (HCV-O strain), 1B-4RL cells (HCV-1B-4 strain), and KAH5RL cells (HCV-KAH5 strain) as Li23 cell-derived full-length HCV-RNA-replicating cells were used for the quantitative analysis of anti-HCV activity and evaluation of a cytotoxic effect in the present invention. […] In addition, all the HCV strains belong to genotype 1b.
The WST-1 cell proliferation assay was performed 72 hours after the culture.
A further data set deals with HCV RNA in ORL8 cells. The data set is described as follows: Production of cured cells from ORL8 cells by treatment with N-89. The data set is classed as cell-based, HCV genotype 1b. The procedure:
A drug treatment method for the cells was performed according to a method with IFN-γ (1,000 IU/mL) (Abe K et al., Virus Res. 125:88-97, 2007) generally used in the production of cured cells by the inventors of the present invention.
as §1
FIG. 14 show the results. […] The ORL8 cells cultured in the medium in the presence of G418 were all killed, whereas the ORL8 cells cultured in the absence of G418 became confluent at a normal proliferation rate. In order to confirm that HCV RNA was eliminated from the cells, Western blot analysis was performed using an anti-HCV core antibody and an anti-HCV NS5B antibody (FIG. 14c). The ORL8 cells were used as a positive control.

In a further data set the test system is 1B-4RL cells. In words: Cytotoxic effect, WST-1 cell proliferation assay in 1B-4RL cells. The data set is classed as cell-based, human. As to conditions: 72 hours.
The test system of a further data set is OR6 cells. In words: Cytotoxic effect, WST-1 cell proliferation assay in OR6 cells. Conditions: OR6 cells, 72 hours, WST-1. From the text:
Assay systems using OR6 cells (HCV-O strain), 1B-4R cells (HCV-1B-4 strain), and AH1R cells (HCV-AH1R strain) as HuH-7 cell-derived full-length HCV-RNA-replicating cells, and ORL8 cells (HCV-O strain), ORL11 cells (HCV-O strain), 1B-4RL cells (HCV-1B-4 strain), and KAH5RL cells (HCV-KAH5 strain) as Li23 cell-derived full-length HCV-RNA-replicating cells were used for the quantitative analysis of anti-HCV activity and evaluation of a cytotoxic effect in the present invention. The three cell lines, i.e., the 1B-4R cells, the 1B-4RL cells, and the KAH5RL cells have been disclosed in WO 2010/026965 A1. The AH1R cells may be produced with reference to Mori K et al., BBRC, 371:104-109, 2008 and WO 2010/026965 A1. In addition, all the HCV strains belong to genotype 1b.
In the measurement of the renilla luciferase activity and the measurement by the WST-1 method, experiments were performed in three wells independent of each other, and their means and standard deviation were calculated.
After 24 hours, N-89 was added so as to achieve concentrations of 20 μM, a 2-fold dilution series from 20 μM (10, 5, 2.5, 1.3, 0.63, and 0.31 μM), and 0, or N-251 was added so as to achieve concentrations of 10 μM, a 2-fold dilution series from 10 μM (5, 2.5, 1.3, 0.63, 0.31, and 0.16 μM), and 0.
The cytotoxic effect of artemisinin was examined using OR6 and ORL8 cells and the CC50 values were calculated. […]

Data set [5] in a line: Cytotoxic effect, WST-1 cell proliferation assay in KAH5RL cells. The data set is classed as cell-based, human. As to conditions: human; KAH5RL cells, 72 hours, WST-1.
Description: The concentrations of N-89 and N-251 were the same as the concentrations used for the measurement of the luciferase activity, and the WST-1 cell proliferation assay was performed 72 hours after the addition.
For another data set, the system named is KAH5RL cells. The data set is described as above. The data set is classed as cell-based, human. As to conditions: KAH5RL vs ORL8.

Excerpt for 1B-4RL cells: as §3
N-89 was added at the concentrations used for the measurement of the luciferase activity, and N-251 was added so as to achieve concentrations of 2 μM, a 2-fold dilution series from 2 μM (1, 0.5, 0.25, 0.13, 0.06, and 0.03 μM), and 0. The WST-1 cell proliferation assay was performed 72 hours after the addition.

A word on the CC50: it is the concentration that lowers cell viability or growth by half. Read a high CC50 as lower toxicity to the cells. Take `C1CCCCCC2(CCCCC1)OOCCCOO2` [N-89, 1,2,6,7-tetraoxaspiro[7,11]nonadecane]: the “production of cured cells” value is given as “cured cells were able to be produced” in data set [1]; “cured cells were able to be produced” in data set [3]; “cured cells were able to be produced” in the data set with HCV RNA in ORL8 cells (ORL8 cells, N-89 1 μM, added six times). Moreover, the “influence of KNO3 or NaClO4 in combination on the anti-HCV activity” value in data set [2] is listed as “no influence”. Besides, the CC50 at 72 h in data set [4] is around 500 nM. The “HCV core protein and NS5B in treated cells (Western blot)” value in the data set on HCV RNA in ORL8 cells (ORL8 cells treated with N-89 1 μM, added six times, Day 26) is “none of a core protein and NS5B was detected”. Moreover, the “treated cells cultured in medium in the presence of G418 (CBB staining)” value in the data set on HCV RNA in ORL8 cells (ORL8 cells, N-89 1 μM, G418 0.3 mg/mL) is given as “all killed”.
Turning to `OCCCCCCC1COOC2(CCCCCCCCCCC2)OOC1` [N-251, 6-(1,2,6,7-tetraoxaspiro[7,11]nonadec-4-yl)], the values for the CC50 in the data set on 1B-4RL cells and with OR6 cells were 1900 nM and 3000 nM, respectively. Also, the 50% cytotoxic concentration (CC50) at 72 h in data set [5] amounted to 3200 nM. In addition, in the data set with KAH5RL cells, the “CC50 fold higher in KAH5RL cells than in ORL8 cells” value is “about 2.5 fold”.
